Measured values taken from ChEMBL document CHEMBL1154811, “Dehydroconicasterol and aurantoic acid, a chlorinated polyene derivative, from the Indonesian sponge Theonella swinhoei” (J Nat Prod, 2009).

Tests used:
Format in all cases: functional, cell-based
C6 = test: Cytotoxicity against rat C6 cells
HeLa = test: Cytotoxicity against human HeLa cells
H9c2 = test: Cytotoxicity against rat H9c2 cells

Measured: IC50

C=C(CC[C@@H](C)[C@H]1CCC2=C3CCC4C(=C)[C@@H](O)CC[C@]4(C)[C@H]3CC[C@@]21C)C(C)C (stereo not given in full) [DEHYDROCONICASTEROL]
> 70 µM: all assays above

C=C1C2CCC3=C4CC[C@H]([C@H](C)CC[C@H](CC)C(C)C)[C@@]4(C)CC[C@@H]3[C@@]2(C)CC[C@@H]1O (stereo not given in full) [THEONELLASTEROL]
> 70 µM: all assays above

C/C(Cl)=C/C=C/C=C/C=C/C=C/C(O)=C1\C(=O)[C@H](CC(N)=O)N([C@@H]2OC[C@@H](O)[C@H](O)[C@H]2O)C1=O [AURANTOSIDE G]
> 70 µM: all assays above

C/C(Cl)=C/C=C/C=C/C=C/C=C/C(=O)O [AURANTOIC ACID]
> 70 µM: all assays above

C=C1C2CCC3=C4CC[C@H]([C@H](C)CC[C@@H](C)C(C)C)[C@@]4(C)CC[C@@H]3[C@@]2(C)CC[C@@H]1O (stereo not given in full) [CONICASTEROL]
> 70 µM: all assays above
